Test results taken from paper PMC7139549, “TLD1433 Photosensitizer Inhibits Conjunctival Melanoma Cells in Zebrafish Ectopic and Orthotopic Tumour Models” (Cancers, 2020).
Where two headings read alike, the source gives them in different places.

How the values were obtained:
[1] = tested on: OMM2.5 uveal melanoma cell line; assay: SRB cell viability assay, OMM2.5; format: cell-based, Human
Procedure: (§1) TLD1433 is known to generate reactive oxygen species (ROS) with high quantum efficacy in many cancer cell lines. However, there is no report of the in vitro toxicity of this compound in eye melanoma (UM) cell lines. We determined the cell viability of three conjunctival melanoma cell lines (CRMM1, CRMM2 and CM2005.1), and three uveal melanoma cell lines (OMM1, OMM2.5, MEL270) in the presence of TLD1433, both in the dark or under green light irradiation (21 mW/cm^2, 19 J/cm^2, 520 nm, 15 min), and compared this viability to epidermoid carcinoma A431 and cutaneous melanoma A375 cell lines under the same conditions. The protocol used was based on previous work from the Bonnet group, and differed slightly from recommendations from McFarland et al.. […] The effective concentration (EC50) values, i.e., the concentration required to reduce cell viability by 50% compared to untreated wells, were assessed by fitting the dose-response curves with a Hill equation. The phototoxicity index (PI), defined as the ratio of the dark EC50 to the light EC50, was also calculated and represents the amplification of TLD1433 activity with a light trigger. […]
(§2) Figure 2 Cell viability after TLD1433 treatment of eight tumour cell lines (CRMM1, CRMM2, CM2005.1, OMM1, OMM2.5, MEL270, A431, A375). […] The absorbance of Sulforhodamine B in solution was measured at 520 nm. […]
(§3) At day 0, cells were detached using 1mL of trypsin, resuspended in 4 mL of media and transferred to a 15 mL corning falcon tube. Cells were counted using trypan blue and BioRad® TC20™ automated cell counter (Figure 11). Dilutions of 6000 (CRMM1), 6000 (CRMM2), 8000 (CM2005.1), 6000 (OMM1), 6000 (OMM2.5), 6000 (MEL270) 8000 (A431), and 4000 (A375) cells/well were calculated from each cell suspension at a final volume of 6 mL using the following formula: Vc=(Vt×10C)/Lc where Vt = total volume of solution, C = number of cells per well/per 100 μL and Lc = live cells count (cells/mL). […] Next day, the dye was dissolved using Tri-base (0.25%) and absorbance of SRB at 510 nm was recorded from each well using a Tecan plate reader. […]

[2] = tested on: MEL270 uveal melanoma cell line; assay: SRB cell viability assay, MEL270; format: cell-based, Human
Procedure: as §1, §2, §3

other cell lines = tested on: other cell lines; design: method as in not given; settings: reported for TLD1433 with other cell lines; ref not given; cited from earlier work

In the case of `Cc1ccnc(-c2cc(C)ccn2)c1.Cc1ccnc(-c2cc(C)ccn2)c1.[Cl-].[Cl-].[Ru+2].c1csc(-c2ccc(-c3ccc(-c4nc5c6cccnc6c6ncccc6c5[nH]4)s3)s2)c1` [TLD1433], the EC50 ([1]; OMM2.5, dark, 24 h treatment, SRB, read-out: EC50, dark) is reported as 640 nM, the EC50 ([1]; OMM2.5, green light 520 nm, 15 min, 21 mW/cm^2, 19 J.cm^−2, DLI 24 h, read-out: EC50,light) is reported as 13 nM and the “PI (photo index)” value ([1]; OMM2.5, ratio of dark and light EC50, 19 J.cm^−2 green light) is reported as 49. For the same compound, the EC50 ([2]; MEL270, dark, 24 h treatment, SRB, read-out: EC50, dark) was 1100 nM, the EC50 ([2]; MEL270, green light 520 nm, 15 min, 21 mW/cm^2, 19 J.cm^−2, DLI 24 h, read-out: EC50,light) was 10 nM and the “PI (photo index)” value ([2]; MEL270, ratio of dark and light EC50, 19 J.cm^−2 green light) was 110. The PI (other cell lines) was greater than 1000.
